Measurements: patent US10577378B2, “EIF4A-inhibiting compounds and methods related thereto” (eFFECTOR Therapeutics, Inc., priority 2015, dated 2020)

Test system: MDA-MB-231 human breast cancer cells
Test: Cell proliferation assay (CellTiter-Glo, 72 hours treatment)
Format: cell-based
Details: Homo sapiens; MDA-MB-231 cells, 72 hours at 37° C., CellTiter-Glo; read-out: MDA-MB-231 cell proliferation assay (IC50)
In short: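 IC50 categories: under 100 nM +++, 100–1000 nM ++, above 1000 nM +, derived by sigmoidal curve fitting of CellTiter-Glo luminescence. Cells plated at 2,500 per well, dosed the following day and exposed 72 h at 37 °C versus DMSO control.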

| Compound | IC50 |
| --- | --- |
| COc1cncc2c1[C@]1(O)[C@H](O)[C@H](C(=O)NCC(C)(C)O)[C@@H](c3ccccc3)[C@]1(c1ccc(Br)cc1)O2 (racemic) [253F, Rac-(4bS,5R,6R,7S,7aR)-7a-(4-bromophenyl)-4b,5-dihydroxy-N-(2-hydroxy-2-methylpropyl)-4-methoxy-7-phenyl-4b,6,7,7a-tetrahydro-5H-cyclopenta[4,5]furo[2,3-c]pyridine-6-carboxamide] | < 100 nM |
| COc1cncc2c1[C@]1(O)[C@H](O)[C@H](C(=O)N(C)C)[C@@H](c3ccccc3)[C@]1(c1ccc(C)cc1)O2 (racemic) [255F, rac-(4bS,5R,6R,7S,7aR)-4b,5-dihydroxy-4-methoxy-N,N-dimethyl-7-phenyl-7a-(p-tolyl)-4b,6,7,7a-tetrahydro-5H-cyclopenta[4,5]furo[2,3-c]pyridine-6-carboxamide] | 100 to 1000 nM |
| COc1cncc2c1[C@]1(O)[C@H](O)[C@H](C(=O)N3CCCCC3)[C@@H](c3ccccc3)[C@]1(c1ccc(Br)cc1)O2 (racemic) [257F, Rac-((4bS,5R,6R,7S,7aR)-7a-(4-bromophenyl)-4b,5-dihydroxy-4-methoxy-7-phenyl-4b,6,7,7a-tetrahydro-5H-cyclopenta[4,5]furo[2,3-c]pyridin-6-yl)(piperidin-1-yl)methanone] | < 100 nM |
| COc1cncc2c1[C@]1(O)[C@H](O)[C@H](CNCCF)[C@@H](c3ccccc3)[C@]1(c1ccc(C#N)cc1)O2 (racemic) [259F, Rac-4-((4bS,5R,6S,7S,7aR)-6-(((2-fluoroethyl)amino)methyl)-4b,5-dihydroxy-4-methoxy-7-phenyl-4b,5,6,7-tetrahydro-7aH-cyclopenta[4,5]furo[2,3-c]pyridin-7a-yl)benzonitrile] | 100 to 1000 nM |
| COCCN(C)C(=O)[C@H]1[C@@H](O)[C@@]2(O)c3c(OC)cncc3O[C@@]2(c2ccc(Br)cc2)[C@@H]1c1ccccc1 (racemic) [260F, rac-(4bS,5R,6R,7S,7aR)-7a-(4-bromophenyl)-4b,5-dihydroxy-4-methoxy-N-(2-methoxyethyl)-N-methyl-7-phenyl-4b,6,7,7a-tetrahydro-5H-cyclopenta[4,5]furo[2,3-c]pyridine-6-carboxamide] | < 100 nM |
| COCCNC(=O)[C@H]1[C@@H](O)[C@@]2(O)c3c(OC)cncc3O[C@@]2(c2ccc(Br)cc2)[C@@H]1c1ccccc1 (racemic) [262F, Rac-(4bS,5R,6R,7S,7aR)-7a-(4-bromophenyl)-4b,5-dihydroxy-4-methoxy-N-(2-methoxyethyl)-7-phenyl-4b,6,7,7a-tetrahydro-5H-cyclopenta[4,5]furo[2,3-c]pyridine-6-carboxamide] | < 100 nM |
| COc1cncc2c1[C@]1(O)[C@H](O)[C@H](C(=O)N3[C@@H]4CC[C@H]3COC4)[C@@H](c3ccccc3)[C@]1(c1ccc(Br)cc1)O2 (racemic) [264F, Rac-((1R,5S)-3-oxa-8-azabicyclo[3.2.1]octan-8-yl)((4bS,5R,6R,7S,7aR)-7a-(4-bromophenyl)-4b,5-dihydroxy-4-methoxy-7-phenyl-4b,6,7,7a-tetrahydro-5H-cyclopenta[4,5]furo[2,3-c]pyridin-6-yl)methanone] | < 100 nM |
| COc1cncc2c1[C@]1(O)[C@H](O)[C@H](C(=O)N3[C@@H]4COC[C@H]3C4)[C@@H](c3ccccc3)[C@]1(c1ccc(Br)cc1)O2 (racemic) [266F, Rac-((1R,5S)-3-oxa-6-azabicyclo[3.1.1]heptan-6-yl)((4bS,5R,6R,7S,7aR)-7a-(4-bromophenyl)-4b,5-dihydroxy-4-methoxy-7-phenyl-4b,6,7,7a-tetrahydro-5H-cyclopenta[4,5]furo[2,3-c]pyridin-6-yl)methanone] | < 100 nM |
| COc1cncc2c1[C@]1(O)[C@H](O)[C@H](CN3[C@@H]4COC[C@H]3C4)[C@@H](c3ccccc3)[C@]1(c1ccc(C#N)cc1)O2 (racemic) [267F, Rac-4-((4bS,5R,6S,7S,7aR)-6-(((1R,5S)-3-oxa-6-azabicyclo[3.1.1]heptan-6-yl)methyl)-4b,5-dihydroxy-4-methoxy-7-phenyl-4b,5,6,7-tetrahydro-7aH-cyclopenta[4,5]furo[2,3-c]pyridin-7a-yl)benzonitrile] | 100 to 1000 nM |
| COc1cncc2c1[C@]1(O)[C@@H]3OC(=O)N[C@@H]3[C@@H](c3ccccc3)[C@]1(c1ccc(C(F)F)cc1)O2 (racemic) [269F, rac-(3aR,4R,4aR,9bS,9cR)-4a-(4-(difluoromethyl)phenyl)-9b-hydroxy-9-methoxy-4-phenyl-3,3a,4,4a,9b,9c-hexahydro-2H-oxazolo[4″,5″:4′,5′]cyclopenta[1′,2′:4,5]furo[2,3-c]pyridin-2-one] | < 100 nM |
| COc1cncc2c1[C@]1(O)[C@H](O)[C@H](N)[C@@H](c3ccccc3)[C@]1(c1ccc(C(F)F)cc1)O2 (racemic) [270F, Rac-(4bS,5R,6R,7R,7aR)-6-amino-7a-(4-(difluoromethyl)phenyl)-4-methoxy-7-phenyl-5,6,7,7a-tetrahydro-4bH-cyclopenta[4,5]furo[2,3-c]pyridine-4b,5-diol] | 100 to 1000 nM |
| COc1cncc2c1[C@]1(O)[C@H](O)[C@H](C(=O)N(C)C)[C@@H](c3ccccc3)[C@]1(c1ccc(Cl)cc1)O2 (racemic) [271F, rac-(4bS,5R,6R,7S,7aR)-7a-(4-chlorophenyl)-4b,5-dihydroxy-4-methoxy-N,N-dimethyl-7-phenyl-4b,6,7,7a-tetrahydro-5H-cyclopenta[4,5]furo[2,3-c]pyridine-6-carboxamide] | 100 to 1000 nM |
| COc1cncc2c1[C@]1(O)[C@H](O)[C@H](C(=O)N3CC4CC(C3)O4)[C@@H](c3ccccc3)[C@]1(c1ccc(Br)cc1)O2 (racemic) [273F, Rac-(6-oxa-3-azabicyclo[3.1.1]heptan-3-yl)((4bS,5R,6R,7S,7aR)-7a-(4-bromophenyl)-4b,5-dihydroxy-4-methoxy-7-phenyl-4b,6,7,7a-tetrahydro-5H-cyclopenta[4,5]furo[2,3-c]pyridin-6-yl)methanone] | < 100 nM |
| COc1cncc2c1[C@]1(O)[C@@H]3OC(=O)C[C@@H]3[C@@H](c3ccccc3)[C@]1(c1ccc(Br)cc1)O2 (racemic) [275F, Rac-(3aR,4S,4aR,9bS,9cR)-4a-(4-bromophenyl)-9b-hydroxy-9-methoxy-4-phenyl-3,3a,4,4a,9b,9c-hexahydro-2H-furo[3″,2″:4′,5′]cyclopenta[1′,2′:4,5]furo[2,3-c]pyridin-2-one] | < 100 nM |
| COc1cncc2c1[C@]1(O)[C@H](O)[C@H](CCN(C)C)[C@@H](c3ccccc3)[C@]1(c1ccc(C#N)cc1)O2 (racemic) [276F, Rac-4-((4bS,5R,6R,7S,7aR)-6-(2-(dimethylamino)ethyl)-4b,5-dihydroxy-4-methoxy-7-phenyl-4b,5,6,7-tetrahydro-7aH-cyclopenta[4,5]furo[2,3-c]pyridin-7a-yl)benzonitrile] | 100 to 1000 nM |
| COc1cncc2c1[C@]1(O)[C@H](O)[C@H](C(=O)N(C)Cc3cccnc3)[C@@H](c3ccccc3)[C@]1(c1ccc(Br)cc1)O2 (racemic) [277F, Rac-(4bS,5R,6R,7S,7aR)-7a-(4-bromophenyl)-4b,5-dihydroxy-4-methoxy-N-methyl-7-phenyl-N-(pyridin-3-ylmethyl)-4b,6,7,7a-tetrahydro-5H-cyclopenta[4,5]furo[2,3-c]pyridine-6-carboxamide] | < 100 nM |
| COc1cncc2c1[C@]1(O)[C@H](O)[C@H](C(=O)N3CCC(F)(F)C3)[C@@H](c3ccccc3)[C@]1(c1ccc(Br)cc1)O2 (racemic) [279F, Rac-((4bS,5R,6R,7S,7aR)-7a-(4-bromophenyl)-4b,5-dihydroxy-4-methoxy-7-phenyl-4b,6,7,7a-tetrahydro-5H-cyclopenta[4,5]furo[2,3-c]pyridin-6-yl)(3,3-difluoropyrrolidin-1-yl)methanone] | < 100 nM |
| COc1cncc2c1[C@]1(O)[C@H](O)[C@H](C(=O)N3CCOCC3)[C@@H](c3ccccc3)[C@]1(c1ccc(C(F)(F)F)cc1)O2 (racemic) [281F, rac-((4bS,5R,6R,7S,7aR)-4b,5-dihydroxy-4-methoxy-7-phenyl-7a-(4-(trifluoromethyl)phenyl)-4b,6,7,7a-tetrahydro-5H-cyclopenta[4,5]furo[2,3-c]pyridin-6-yl)(morpholino)methanone] | 100 to 1000 nM |
| COc1cncc2c1[C@]1(O)[C@H](O)[C@H](C(=O)N3CCN(C)CC3)[C@@H](c3ccccc3)[C@]1(c1ccc(C(F)(F)F)cc1)O2 (racemic) [283F, rac-((4bS,5R,6R,7S,7aR)-4b,5-dihydroxy-4-methoxy-7-phenyl-7a-(4-(trifluoromethyl)phenyl)-4b,6,7,7a-tetrahydro-5H-cyclopenta[4,5]furo[2,3-c]pyridin-6-yl)(4-methylpiperazin-1-yl)methanone] | 100 to 1000 nM |
| COc1cncc2c1[C@]1(O)[C@H](O)[C@H](C(=O)NCC(F)F)[C@@H](c3ccccc3)[C@]1(c1ccc(C(F)(F)F)cc1)O2 (racemic) [285F, Rac-(4bS,5R,6R,7S,7aR)—N-(2,2-difluoroethyl)-4b,5-dihydroxy-4-methoxy-7-phenyl-7a-(4-(trifluoromethyl)phenyl)-4b,6,7,7a-tetrahydro-5H-cyclopenta[4,5]furo[2,3-c]pyridine-6-carboxamide] | 100 to 1000 nM |
| COc1cncc2c1[C@]1(O)[C@](O)(CN3CCOCC3)C[C@@H](c3ccccc3)[C@]1(c1ccc(C#N)cc1)O2 (racemic) [287F, Rac-4-((4bS,5R,7S,7aR)-4b,5-dihydroxy-4-methoxy-5-(morpholinomethyl)-7-phenyl-4b,5,6,7-tetrahydro-7aH-cyclopenta[4,5]furo[2,3-c]pyridin-7a-yl)benzonitrile] | > 1000 nM |
| COc1cncc2c1[C@]1(O)C(CN3CCOCC3)C[C@@H](c3ccccc3)[C@]1(c1ccc(C(F)(F)F)cc1)O2 (mixture of isomers) [289F, Rac-(4bR,7S,7aR)-4-methoxy-5-(morpholinomethyl)-7-phenyl-7a-(4-(trifluoromethyl)phenyl)-5,6,7,7a-tetrahydro-4bH-cyclopenta[4,5]furo[2,3-c]pyridin-4b-ol] | 100 to 1000 nM |
